Reference: patent US20070265301A1, “Dpp-IV Inhibitors” (priority 2004, published 2007)
Structures can show the parent of a compound that is named as a salt.

The compounds below were run against T1, DPP-IV (Homo sapiens, UniProt P27487) (assay: Continuous fluorimetric assay of DPP-IV peptidase activity (Gly-Pro-AMC cleavage)). Settings: 50 pM DPP-IV, 16 μM Gly-Pro-AMC, pH 7.4, 25° C., 1% DMSO; values grouped in 3 classes; read-out: IC50 for inhibition of DPP-IV peptidase activity.
T1 construct: Soluble human DPP-IV lacking the transmembrane anchor (Gly31-Pro766); Pre-Pro-alpha-mating factor leader (secretion signal) (N, cleaved yes); made in house
T1 sequence (P27487 31-766): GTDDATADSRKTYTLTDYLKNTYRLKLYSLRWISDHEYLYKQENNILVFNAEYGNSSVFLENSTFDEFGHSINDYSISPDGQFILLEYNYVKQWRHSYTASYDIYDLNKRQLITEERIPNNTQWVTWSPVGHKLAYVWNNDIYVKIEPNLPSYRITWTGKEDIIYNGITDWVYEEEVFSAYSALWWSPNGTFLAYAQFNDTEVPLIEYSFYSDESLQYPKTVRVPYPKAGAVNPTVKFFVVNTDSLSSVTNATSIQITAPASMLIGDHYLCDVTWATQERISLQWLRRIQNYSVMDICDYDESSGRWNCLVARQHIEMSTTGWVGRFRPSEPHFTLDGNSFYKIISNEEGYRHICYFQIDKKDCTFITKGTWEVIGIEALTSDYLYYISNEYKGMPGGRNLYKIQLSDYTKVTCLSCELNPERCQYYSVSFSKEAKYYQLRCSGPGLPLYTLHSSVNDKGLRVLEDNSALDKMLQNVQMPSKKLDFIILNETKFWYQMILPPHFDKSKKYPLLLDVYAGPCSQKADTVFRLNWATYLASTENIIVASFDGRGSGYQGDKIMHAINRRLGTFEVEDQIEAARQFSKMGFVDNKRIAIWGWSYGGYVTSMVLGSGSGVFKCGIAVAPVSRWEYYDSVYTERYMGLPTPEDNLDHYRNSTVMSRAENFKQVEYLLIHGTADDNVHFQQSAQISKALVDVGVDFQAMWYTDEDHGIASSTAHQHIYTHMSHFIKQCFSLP
Assay type: biochemical
Experimental: Inhibition of DPP-IV peptidase activity was monitored with a continuous fluorimetric assay. This assay is based on the cleavage of the substrate Gly-Pro-AMC (Bachem) by DPP-IV, releasing free AMC. The assay is carried out in 96-well microtiterplates. In a total volume of 100 μL, compounds are preincubated with 50 pM DPP-IV employing a buffer containing 10 mM Hepes, 150 mM NaCl, 0.005% Tween 20 (pH 7.4). The reaction is started by the addition of 16 μM substrate and the fluorescence of liberated AMC is detected for 10 minutes at 25° C. with a fluorescence reader (BMG-Fluostar; BMG-Technologies) using an excitation wavelength of 370 nm and an emission wavelength of 450 nm. The final concentration of DMSO is 1%. The inhibitory potential of the compounds were determined.
Soluble human DPP-IV lacking the transmembrane anchor (Gly31-Pro766) was expressed in a recombinant YEAST-strain as Pre-Pro-alpha-mating fusion. The secreted product (rhuDPP-IV-Gly31-Pro766) was purified from fermentation broth (>90% purity).
In the table are listed the IC50 values for inhibition of DPP-IV peptidase activity determined in assays as described above.
N[C@@H](CC(=O)N1Cc2ccccc2C[C@H]1CNS(=O)(=O)C1CC1)Cc1cccc(Cl)c1 [Example 10, Cyclopropanesulfonic acid {2-[(3R)-3-amino-4-(3-chloro-phenyl)-butyryl]-1,2,3,4-tetrahydro-isoquinolin-(3S)-3-ylmethyl]-amide, trifluoroacetate salt] was tested, and the IC50 was no more than 100 nM.
Compound Cc1cc(C(=O)NC[C@@H]2Cc3ccccc3CN2C(=O)C[C@H](N)Cc2ccccc2F)no1 [Example 5, 5-Methyl-isoxazole-3-carboxylic acid-{2-[(3R)-3-amino-4-(2-fluoro-phenyl)-butyryl]-1,2,3,4-tetrahydro-isoquinolin-(3S)-3-ylmethyl}-amide, trifluoroacetate salt] has an IC50 of no more than 100 nM.
Work on N[C@@H](CC(=O)N1Cc2ccccc2C[C@H]1CNC(=O)C1(O)CC1)Cc1ccccc1F [Example 2, 1-Hydroxy-cyclopropanecarboxylic acid {2-[(3R)-3-amino-4-(2-fluoro-phenyl)-butyryl]-1,2,3,4-tetrahydro-isoquinolin-(3S)-3-ylmethyl}-amide, trifluoroacetate salt] yielded an IC50 of 101 to 1000 nM.
In the case of N[C@@H](CC(=O)N1Cc2ccccc2C[C@H]1CNS(=O)(=O)C1CC1)Cc1ccccc1F [Example 9, Cyclopropanesulfonic acid {2-[(3R)-3-amino-4-(2-fluoro-phenyl)-butyryl]-1,2,3,4-tetrahydro-isoquinolin-(3S)-3-ylmethyl-amide, trifluoroacetate salt], the IC50 is reported as no more than 100 nM.
In the case of N[C@@H](CC(=O)N1Cc2ccccc2C[C@H]1CNC(=O)c1ccccc1)Cc1ccccc1F [Example 4, N-{2-[(3R)-3-Amino-4-(2-fluoro-phenyl)-butyryl}-1,2,3,4-tetrahydro-isoquinolin-(3S)-3-ylmethyl}-benzamide, trifluoroacetate salt], the IC50 is reported as no more than 100 nM.
Compound N[C@@H](CC(=O)N1c2ccccc2CC1COCc1ccccc1)Cc1ccccc1F (mixture of isomers) [Example 13, (3R)-3-Amino-1-benzyloxymethyl-2,3-dihydro-indo-1-yl)-4-(2-fluorophenyl)-butan-1-one trifluoroacetate salt] has an IC50 of 1000 to 2000 nM.
With CN(C)C[C@@H]1Cc2ccccc2CN1C(=O)C[C@H](N)Cc1ccccc1F [Example 7, (3R)-3-Amino-1-(3S)-3-(3-dimethylaminomethyl-3,4-dihydro-1H-isoquinolin-2-yl)-4-(2-fluorophenyl)-butan-1-one, trifluoroacetate salt] the IC50 was 1000 to 2000 nM.
Nc1nc(C(=O)NC[C@@H]2Cc3ccccc3CN2C(=O)C[C@H](N)Cc2ccccc2F)n[nH]1 [Example 6, 5-Amino-1H-[1,2,4]triazole-3-carboxylic acid-{2-[(3R)-3-amino-4-(2-fluoro-phenyl)-butyryl]-1,2,3,4-tetrahydro-isoquinolin-(3S)-3-ylmethyl-amide, trifluoroacetate salt] was tested, and the IC50 was no more than 100 nM.
In the case of CS(=O)(=O)NC[C@@H]1Cc2ccccc2CN1C(=O)C[C@H](N)Cc1ccccc1F [Example 8, N-{2-[(3R)-3-Amino-4-[2-fluoro-phenyl)-butyryl]-1,2,3,4-tetrahydro-isoquinolin-(3S)-3-ylmethyl}-methanesulfonamide, trifluoroacetate salt], the IC50 is reported as no more than 100 nM.
With N[C@@H](CC(=O)N1Cc2ccccc2C[C@H]1CNC(=O)C1CC1)Cc1ccccc1F [Example 1, Cyclopropanecarboxylic acid {2-[(3R)-3-amino-4-(2-fluoro-phenyl)-butyryl]-1,2,3,4-tetrahydro-isoquinolin-(3S)-3-ylmethyl]-amide, trifluoroacetate salt] the IC50 was 101 to 1000 nM.
Compound N[C@@H](CC(=O)N1Cc2ccccc2C[C@H]1COc1cccc(F)c1)Cc1ccccc1F [Example 12, trifluoroacetate salt] has an IC50 of no more than 100 nM.
In the case of NC(CC(=O)N1Cc2ccccc2C[C@H]1CNS(=O)(=O)C1CC1)Cc1cc(F)ccc1F (mixture of isomers) [Example 11, Cyclopropanesulfonic acid {2-[(3-amino-4-(2,5-difluoro-phenyl)-butyryl]-1,2,3,4-tetrahydro-isoquinolin-(3S)-3-ylmethyl}-amide, trifluoroacetate salt], the IC50 is reported as no more than 100 nM.
Work on N[C@@H](CC(=O)N1Cc2ccccc2CC1COCc1ccccc1)Cc1ccccc1F (stereo partly drawn) [Example 14, (3R)-3-Amino-1-benzyloxymethyl-3,4-dihydro-1H-isoquinolin-2-yl)-4-(2-fluorophenyl)-butan-1-one, trifluoroacetate salt] yielded an IC50 of no more than 100 nM.
Work on N[C@@H](CC(=O)N1Cc2ccccc2C[C@H]1CNC(=O)CO)Cc1ccccc1F [Example 3, N-{2-[(3R)-3-Amino-4-(2-fluoro-phenyl)-butyryl-1,2,3,4-tetrahydroisoquinolin-(3S)-3-ylmethyl}-2-hydroxy-acetamide, trifluoroacetate salt] yielded an IC50 of 101 to 1000 nM.
